Experimental data reported in paper PMC7467771, “Lipophilic Arginine Esters: The Gateway to Preservatives without Side Effects” (Molecular Pharmaceutics, 2020).

Tests used:
[1] = octanol/water partition coefficient (log P) by TNBS assay; type: physicochemical; conditions: octanol/water mixture 1:1 v/v; mean, n = 3
Experimental: Log P of Arg and both Arg-esters were determined using an already described method.[15] Each compound was dissolved in an octanol/water mixture (1:1, v/v). Afterward, octanol and water phases were separated by a high-speed mini centrifuge (Fisher Scientific, Illinois USA), and the concentration of each compound in each phase was determined by the TNBS assay. For this, a 50 μL volume from each phase was diluted 10 times with 0.1 M sodium bicarbonate (pH 8.5) containing 40% (v/v) isopropyl alcohol. After dilution, 250 μL of the TNBS reagent (0.01%, v/v) prepared in 0.1 M sodium bicarbonate (pH 8.5) was added to each sample that was incubated at 37 °C. After 2 h, the reaction was stopped by adding 250 μL of 10% (m/v) SDS and 125 μL of 1 M HCl. The absorbance of each sample was measured at 335 nm using a Spark multifunctional microplate reader (Tecan Austria, GmbH). The logarithm of the octanol/water absorbance ratio was expressed as log P for each sample.

[2] = critical micelle concentration (CMC), pyrene fluorescent method; type: physicochemical; conditions: aqueous solution, 37 °C, 3 h
Experimental: The critical micelle concentration (CMC) is an important solution property of any amphiphilic compound and can be defined as the minimum concentration at which micelles start to form. The CMC of Arg-esters was determined using a pyrene fluorescent method as described in a previous publication.[15] Methanol solution of pyrene (2 μM) was added to several vials (250 μL per vial) and evaporated overnight to leave thin dried films of pyrene. Aqueous solutions of Arg-esters were prepared in a wide concentration range and were added to individual vials containing pyrene films in a 500 μL volume. The samples were left stirring at 400 rpm, 37 °C. After 3 h, the fluorescence of each sample was measured at the excitation wavelength of 334 nm, and emissions were taken at 372 (I1) nm and 393 nm (I3). A graph was plotted between the fluorescent intensity ratio (I3/I1) and the log concentration of Arg-ester. Then, from the resulting curve for each Arg-ester, the “CMC value” was calculated. For the calculation of the CMC, the segmental linear regression method was used, and CMC values were obtained as the concentration corresponding to the intercept of the extrapolations of the first segment and the rapidly varying second segment of the I3/I1 versus log concentration plot. […]

[3] = system: Caco-2 cells; test: resazurin assay, cytotoxicity; type: cell-based; conditions: for cytotoxicity (samples showing >80% cell viability considered nontoxic): Caco-2, 4 h incubation, at 3000 μg mL^–1; for EC50: Homo sapiens, Caco-2, 4 h, read-out: EC50 (concentration causing 50% cell death)
Experimental: The resazurin assay was used to determine the cytotoxic potential of Arg-esters according to a previous method with some minor modifications.[15] Caco-2 cells were seeded in a 24-well cell culture plate at 25 000 cells per well density and kept in an incubator at 37 °C under a 95% relative humidity environment and 5% CO2 level. Minimum essential medium (MEM) supplemented with streptomycin (0.1 mg […]), penicillin (100 units […]), and fetal calf serum (FCS) 10% (v/v) was used for growing cells. During a growth period of 14 days, the medium was replaced every other day. On the day of the experiment, test solutions of Arg-OL and Arg-DT esters were prepared in 25 mM HBS (HEPES buffered saline) buffer (pH 7.4) in the concentration range of 1000–3000 μg mL^–1. For comparison, the same concentrations of BAC and cetrimide were also prepared in HBS. HBS without any addition was used as a positive control, and Triton X-100 (2%, v/v) in HBS was used as a negative control. The growth medium from all wells of the cell culture plate was removed, and cells were washed three times with HBS preheated at 37 °C. Each test solution and controls were then added to individual wells in a volume of 500 μL, and the cell culture plate was incubated under the same conditions. After 4 h, the solution from each well was removed, and cells were washed with HBS (pH 7.4) preheated at 37 °C. Then, 500 μL of resazurin (2.2 mM) per well was added and incubated for further 3 h under the same conditions. Afterward, the fluorescence of the supernatant from each well was measured at the excitation wavelength of 540 nm and an emission wavelength of 590 nm. Cell viability was calculated by the equation: [drawing 4]

[4] = system: Bacillus subtilis ATCC 6633; test: disk diffusion method; type: cell-based; conditions: Bacillus subtilis, ATCC6633, read-out: zones of inhibition
Experimental: (§1) Following bacterial strains were used for antimicrobial susceptibility testing: Escherichia coli ATCC 25922, Staphylococcus aureus ATCC 29213, Bacillus subtilis ATCC 6633, and Enterococcus faecalis ATCC 19433, which were obtained from the American Type Culture Collection (ATCC, Virginia, USA).
(§2) The disk diffusion method was used for the initial assessment of the antimicrobial activity of Arg-esters. Mueller Hinton agar (MHA, Biomerieux) medium was prepared according to the manufacturer protocol and poured into Petri dishes. All testing microorganisms were dissolved in saline and set to a 0.5 McFarland standard turbidity. This corresponds to a bacterial concentration of 1.5 × 10^8 colony-forming units per milliliter (CFU mL^–1). The bacterial suspension was then swabbed over solidified MHA Petri dishes ensuring homogeneous distribution. The test solutions of Arg-OL, Arg-DT, BAC, and cetrimide were prepared in water with 10% (v/v) DMSO at a concentration of 10 mg mL^–1. Water with 10% (v/v) DMSO was used as a negative control. The diffusion disks of about 6 mm in diameter were prepared from Whatman filter paper. After immersing disks in the above-prepared test solutions, they were placed on MHA plates already swabbed with different bacteria. After overnight incubation of Petri dishes at 37 °C, clear zones of bacterial growth inhibition around disks were measured.

[5] = system: Enterococcus faecalis ATCC 19433; test: disk diffusion method; type: cell-based; conditions: Enterococcus faecalis, ATCC19433, read-out: zones of inhibition
Experimental: as §1, §2

[6] = system: Escherichia coli ATCC 25922; test: disk diffusion method; type: cell-based; conditions: Escherichia coli, ATCC25922, read-out: zones of inhibition
Experimental: as §1, §2

[7] = system: Staphylococcus aureus ATCC 29213; test: disk diffusion method; type: cell-based; conditions: Staphylococcus aureus, ATCC29213, read-out: zones of inhibition
Experimental: as §1, §2

With `CCCCCCCCCCCCC(CCCCCCCCCC)COC(=O)[C@@H](N)CCCNC(=N)N.O=C(O)C(F)(F)F` (stereo partly shown) [Arg-DT, 2-Decyltetradecyl Argininate Trifluoroacetate] the logP [1] was 0.6, the “critical micelle concentration (CMC)” value [2] was 0.013 mM and the “cytotoxicity (samples showing >80% cell viability considered nontoxic)” value [3] was “noncytotoxic”. It also gave an EC50 [3] of 4500 µg/mL, a zone of inhibition at 10 µg/mL [4] of 18 mm and a zone of inhibition at 10 µg/mL [5] of 16 mm. It also gave a zone of inhibition at 10 µg/mL [6] of 9 mm and a zone of inhibition at 10 µg/mL [7] of 16 mm.

For `CCCCCCCCC=CCCCCCCCCOC(=O)[C@@H](N)CCCNC(=N)N.O=C(O)C(F)(F)F` [Arg-OL, Octadec-9-en-1-yl Argininate Trifluoroacetate], the logP [1] was 0.3, the “critical micelle concentration (CMC)” value [2] was 0.52 mM and the “cytotoxicity (samples showing >80% cell viability considered nontoxic)” value [3] was “cytotoxic”. For the same compound, the EC50 [3] was 2600 µg/mL, the zone of inhibition at 10 µg/mL [4] was 16 mm and the zone of inhibition at 10 µg/mL [5] was 18 mm. For the same compound, the zone of inhibition at 10 µg/mL [6] was 9 mm and the zone of inhibition at 10 µg/mL [7] was 19 mm.
